Reference: patent EP1343508B1, “USE OF AN OESTROGEN IN THE MANUFACTURE OF A COMPOSITION CONTAINING OESTROGEN FOR THE TREATMENT OF ATROPHIC VAGINITIS” (Novo Nordisk Femcare AG, priority 2000, dated 2002)
Marks after values point to notes of the source that are not given here.

How the values were obtained:
Type in all cases: in vivo, postmenopausal women
[1] = 24-hour serum estradiol profile after vaginal tablet insertion (radioimmunoassay), Example 2; settings: for patients with areas under the curve below 600 pg hr/mL at both time points / percentage of patients with areas under the curve below 600 pg hr/mL at both time points: weeks 0 and 12; for Maximal concentration / Time to maximal concentration: mean ± SD
Source text: After the screening visit, patients received no study treatment during the 4-week run-in period prior to the baseline visit. […] The vaginal tablets were identical in appearance. Patients inserted 1 tablet intravaginally, once daily for the initial 2 weeks of the study and then twice per week (Sunday and Thursday) for the remaining 10 weeks. Patients were instructed to use their medication at a consistent time each day, preferably in the morning.
Upon presentation to the clinic for each visit, a vaginal cytology specimen was obtained. Patients then inserted the tablets. […] The blood samples obtained at 30 minutes before insertion, and at 6, 12, and 24 hours after insertion were also used to determine the FSH concentration via immunoradiometric assay.
Data for area under the curve and maximal concentration were converted to a logarithmic scale, and changes from first dose (at the baseline visit) in the logarithmic values were estimated using 95% confidence intervals derived from paired t-tests. […] Differences within treatment groups in FSH concentration were determined using the Wilcoxon signed rank test based on changes from baseline in mean concentrations at weeks 2 and 12. Mean concentrations were defined as the average concentrations obtained at 30 minutes before tablet insertion and 6, 12, and 24 hours after insertion.

[2] = tested on: superficial urethral cells; test: Urethral cytology, percentage of superficial cells, Example 3
Description: (§1) Efficacy was measured with composite scores of vaginal symptoms (dryness, soreness, and irritation) and vaginal health (secretions, epithelial integrity, surface thickness, and pH). Vaginal and urethral cytology analyses were also performed, and the vaginal maturation value was determined. Safety assessments included endometrial biopsies.
(§2) All vaginal tablets were identical in appearance. Patients inserted 1 tablet daily for 14 days. Thereafter, patients inserted 1 tablet twice per week (Sunday and Thursday) for the remainder of the trial. Patients were to insert the tablets at the same time each day (preferably at bedtime). Patients were evaluated for efficacy and safety at Week - 4 (screening), Week 0 (baseline), and Weeks 2, 7, and 12.
(§3) Vaginal and urethral cell samples were harvested and analyzed by independent cytologists to determine the percentages of parabasal, intermediate, and superficial cells. Maturation values were calculated according to the following equation: maturation value = 1.0 × [superficial cells, %] + 0.5 × [intermediate cells, %] [formula] Endometrial biopsies were performed at the end of the study in patients with intact uteri. The number of patients with abnormal biopsies was compared between treatment groups.

[3] = tested on: superficial vaginal and urethral cells; test: Superficial vaginal and urethral cells taken together, subjects per category, Example 3; settings: for percentage of subjects with both superficial vaginal and urethral cells less than or equal to 5% / subjects with percentages of both superficial vaginal and urethral cells less than or equal to 5%: Week 0; for percentage of subjects with increases in percentages of both superficial vaginal and urethral cells / subjects with increases in percentages of both superficial vaginal and urethral cells: Week 12
Description: as §1, §2, §3

[4] = 10 µg E2 vaginal tablet, Week 0
[5] = 10 µg E2 vaginal tablet, Week 12
[6] = 25 µg E2 vaginal tablet, Week 0
[7] = 25 µg E2 vaginal tablet, Week 12

SMILES: C[C@]12CC[C@@H]3c4ccc(O)cc4CC[C@H]3[C@@H]1CC[C@@H]2O [E2, 17β-estradiol]
- patients with areas under the curve below 600 pg hr/mL at both time points ([1]; 10 µg E2): 22 patients
- percentage of patients with areas under the curve below 600 pg hr/mL at both time points ([1]; 10 µg E2): 96%
- Serum concentration over 24 hours [1, 4]: 0.015 ng/mL
- Maximal concentration [1, 4]: 35 ± 17 pg/mL
- Area under the curve ([1]; 10 µg E2 vaginal tablet, Week 0, serum E2, mean ± SD): 0.349 ± 0.107 ng·h/mL
- Serum concentration over 24 hours [1, 5]: 0.011 ng/mL
- Maximal concentration [1, 5]: 22 ± 17 pg/mL
- Time to maximal concentration [1, 5]: 10 ± 8 h
- Area under the curve ([1]; 10 µg E2 vaginal tablet, Week 12, serum E2, mean ± SD): 0.264 ± 0.12 ng·h/mL
- patients with areas under the curve below 600 pg hr/mL at both time points ([1]; 25 µg E2): 14 patients
- percentage of patients with areas under the curve below 600 pg hr/mL at both time points ([1]; 25 µg E2): 74%
- Serum concentration over 24 hours [1, 6]: 0.022 ng/mL
- Time to maximal concentration [1, 6]: 15 ± 9 h
- Area under the curve ([1]; 25 µg E2 vaginal tablet, Week 0, repeated Table 2): 538000 ± 265000 ng·h/mL
- Area under the curve ([1]; 25 µg E2 vaginal tablet, Week 0, serum E2, mean ± SD): 0.538 ± 0.265 ng·h/mL
- Serum concentration over 24 hours [1, 7]: 0.023 ng/mL
- Time to maximal concentration [1, 7]: 13 ± 6 h
- Area under the curve ([1]; 25 µg E2 vaginal tablet, Week 12, serum E2, mean ± SD): 0.563 ± 0.341 ng·h/mL
- percentage of superficial urethral cells, Mean ([2]; 10 µg E2, Week 0): 2.5%
- percentage of superficial urethral cells, Mean ([2]; 10 µg E2, Week 2): 16.7%
- percentage of superficial urethral cells, mean Change from baseline ([2]; 10 µg E2, Week 2): 14.1^c %
- percentage of superficial urethral cells, Mean ([2]; 10 µg E2, Week 7): 13.5%
- percentage of superficial urethral cells, mean Change from baseline ([2]; 10 µg E2, Week 7): 10.7%
- percentage of superficial urethral cells, Mean ([2]; 10 µg E2, Week 12): 9.5%
- percentage of superficial urethral cells, mean Change from baseline ([2]; 10 µg E2, Week 12): 6.8%
- percentage of superficial urethral cells, Mean ([2]; 25 µg E2, Week 0): 3.2%
- percentage of superficial urethral cells, Mean ([2]; 25 µg E2, Week 2): 21.9%
- percentage of superficial urethral cells, mean Change from baseline ([2]; 25 µg E2, Week 2): 19.2^a,b %
- percentage of superficial urethral cells, Mean ([2]; 25 µg E2, Week 7): 17.6%
- percentage of superficial urethral cells, mean Change from baseline ([2]; 25 µg E2, Week 7): 14.2^d %
- percentage of superficial urethral cells, Mean ([2]; 25 µg E2, Week 12): 11.2%
- percentage of superficial urethral cells, mean Change from baseline ([2]; 25 µg E2, Week 12): 7.5%
- percentage of subjects with both superficial vaginal and urethral cells less than or equal to 5% ([3]; 10 µg E2): 85%
- subjects with percentages of both superficial vaginal and urethral cells less than or equal to 5% ([3]; 10 µg E2): 53 subjects
- percentage of subjects with increases in percentages of both superficial vaginal and urethral cells ([3]; 10 µg E2): 71%
- subjects with increases in percentages of both superficial vaginal and urethral cells ([3]; 10 µg E2): 44 subjects
- percentage of subjects with both superficial vaginal and urethral cells less than or equal to 5% ([3]; 25 µg E2): 81%
- subjects with percentages of both superficial vaginal and urethral cells less than or equal to 5% ([3]; 25 µg E2): 57 subjects
- percentage of subjects with increases in percentages of both superficial vaginal and urethral cells ([3]; 25 µg E2): 74%
- subjects with increases in percentages of both superficial vaginal and urethral cells ([3]; 25 µg E2): 52 subjects
